Source: the supplement of paper PMC10307832

How the values were obtained:
Experiment in all cases: relative viability (nuclei count vs DMSO), 5 days (fraction); higher = more cells survive
Crenolanib + OSI-027 = compound: CC1(COc2ccc3c(c2)ncn3-c2ccc3cccc(N4CCC(N)CC4)c3n2)COC1 [Crenolanib] + COc1cccc2cc(-c3nc([C@H]4CC[C@H](C(=O)O)CC4)n4ncnc(N)c34)[nH]c12 [OSI-027] (partner 0.5 µM)
Method in brief: (§1)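 The day after seeding in 1536-well plates, lung cancer cell lines were treated by pin tool with a single drug, or with a fixed anchor-drug dose together with five library-drug doses (not always all listed) in √10 steps. After 5 days, a combined fix-and-stain solution (final 0.05% Triton X-100, 1% formaldehyde, 1 ug/ml Hoechst) was added. Nuclei counted on 4× images gave relative viability as treated counts over vehicle counts, reported as the median of duplicate plates.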

Crenolanib + Tozasertib = compound: CC1(COc2ccc3c(c2)ncn3-c2ccc3cccc(N4CCC(N)CC4)c3n2)COC1 [Crenolanib] + Cc1cc(Nc2cc(N3CCN(C)CC3)nc(Sc3ccc(NC(=O)C4CC4)cc3)n2)n[nH]1 [Tozasertib] (partner 0.1 µM)
Method in brief: as §1

Tivantinib + Navitoclax = compound: O=C1NC(=O)[C@@H](c2cn3c4c(cccc24)CCC3)[C@@H]1c1c[nH]c2ccccc12 [Tivantinib] + CC1(C)CCC(c2ccc(Cl)cc2)=C(CN2CCN(c3ccc(C(=O)NS(=O)(=O)c4ccc(N[C@H](CCN5CCOCC5)CSc5ccccc5)c(S(=O)(=O)C(F)(F)F)c4)cc3)CC2)C1 [Navitoclax] (partner 0.5 µM)
Method in brief: as §1

Tivantinib + OSI-027 = compound: O=C1NC(=O)[C@@H](c2cn3c4c(cccc24)CCC3)[C@@H]1c1c[nH]c2ccccc12 [Tivantinib] + COc1cccc2cc(-c3nc([C@H]4CC[C@H](C(=O)O)CC4)n4ncnc(N)c34)[nH]c12 [OSI-027] (partner 0.5 µM)
Method in brief: as §1

**Q.** How did the relative viability (Crenolanib + OSI-027; first compound 0.01 µM) turn out when UMC-11 was run?
**A.** 0.523

**Q.** And the relative viability (Crenolanib + OSI-027; first compound 0.03162 µM)?
**A.** 0.535

**Q.** What about the relative viability (Crenolanib + OSI-027; first compound 0.1 µM) of the same cell line?
**A.** 0.538

**Q.** What about the relative viability (Crenolanib + OSI-027; first compound 0.3162 µM) of the same cell line?
**A.** 0.546

**Q.** What about the relative viability (Crenolanib + OSI-027; first compound 1 µM) of the same cell line?
**A.** 0.514

**Q.** And the relative viability (Crenolanib + Tozasertib; first compound 0.01 µM)?
**A.** 0.193

**Q.** And the relative viability (Crenolanib + Tozasertib; first compound 0.03162 µM)?
**A.** 0.207

**Q.** And the relative viability (Crenolanib + Tozasertib; first compound 0.1 µM)?
**A.** 0.213

**Q.** What about the relative viability (Crenolanib + Tozasertib; first compound 0.3162 µM) of the same cell line?
**A.** 0.189

**Q.** What about the relative viability (Crenolanib + Tozasertib; first compound 1 µM) of the same cell line?
**A.** 0.192

**Q.** What about the relative viability (Tivantinib + Navitoclax; first compound 0.01 µM) of the same cell line?
**A.** 0.316

**Q.** And the relative viability (Tivantinib + Navitoclax; first compound 0.03162 µM)?
**A.** 0.334

**Q.** What about the relative viability (Tivantinib + Navitoclax; first compound 0.1 µM) of the same cell line?
**A.** 0.29

**Q.** What about the relative viability (Tivantinib + Navitoclax; first compound 0.3162 µM) of the same cell line?
**A.** 0.34

**Q.** And the relative viability (Tivantinib + OSI-027; first compound 0.01 µM)?
**A.** 0.451

**Q.** What about the relative viability (Tivantinib + OSI-027; first compound 0.03162 µM) of the same cell line?
**A.** 0.456

**Q.** And the relative viability (Tivantinib + OSI-027; first compound 0.1 µM)?
**A.** 0.465

**Q.** And the relative viability (Tivantinib + OSI-027; first compound 0.3162 µM)?
**A.** 0.521
